Residues, ends and D or L forms follow the SMILES beside them.
How the values were obtained:
[1] = system: Rattus norvegicus; assay: In vivo Antagonist activity at Maxadilan-induced Sprague-Dawley rat assessed as reduction in Maxadilan-induced blood flow at 0.3 mg/kg,sc measured after 45 mins; assay type: functional; parameters: scale not given: the % may be the effect or the level left; details: 0.75 h
[2] = target: T1, Pituitary adenylate cyclase-activating polypeptide type I receptor (Homo sapiens, UniProt P41586); assay: Antagonist activity at PAC1R in human SH-SY5Y cells assessed as inhibition of PACAP38-induced cAMP accumulation pre-incubated for 30 mins followed by agonist addition and measured after 75 mins by Eu-cAMP tracer based LANCE ultra cAMP assay; assay type: cell-based
[3] = target: T2, Pituitary adenylate cyclase-activating polypeptide type I receptor (Rattus norvegicus) (UniProt P32215); assay: Antagonist activity at PAC1R in rat RG2 cells assessed as inhibition of PACAP38-induced cAMP accumulation pre-incubated for 30 mins followed by agonist addition and measured after 75 mins by Eu-cAMP tracer based LANCE ultra cAMP assay; assay type: cell-based; details: filed as antagonist, time 105.0 min
T2 sequence (whole entry): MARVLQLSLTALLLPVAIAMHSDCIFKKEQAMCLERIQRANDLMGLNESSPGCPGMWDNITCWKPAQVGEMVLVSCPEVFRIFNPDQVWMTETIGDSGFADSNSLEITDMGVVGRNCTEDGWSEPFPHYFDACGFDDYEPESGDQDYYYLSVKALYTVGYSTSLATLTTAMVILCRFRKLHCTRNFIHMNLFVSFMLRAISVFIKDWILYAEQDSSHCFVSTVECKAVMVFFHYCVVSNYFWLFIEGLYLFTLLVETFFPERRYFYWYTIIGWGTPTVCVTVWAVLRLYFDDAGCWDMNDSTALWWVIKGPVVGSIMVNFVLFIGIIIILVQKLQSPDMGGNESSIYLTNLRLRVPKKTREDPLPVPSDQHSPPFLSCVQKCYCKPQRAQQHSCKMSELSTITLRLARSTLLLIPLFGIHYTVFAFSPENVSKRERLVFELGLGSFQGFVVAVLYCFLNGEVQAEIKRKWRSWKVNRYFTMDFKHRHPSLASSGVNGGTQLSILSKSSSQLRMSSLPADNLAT

[4] = target: T1, Pituitary adenylate cyclase-activating polypeptide type I receptor; assay: Antagonist activity at PAC1R in human SH-SY5Y cells assessed as inhibition of Maxadilan-induced cAMP accumulation pre-incubated for 30 mins followed by agonist addition and measured after 75 mins by Eu-cAMP tracer based LANCE ultra cAMP assay; assay type: cell-based; details: filed as antagonist, time 105.0 min
Target sequence in this assay (P41586 21-468 limits assumed): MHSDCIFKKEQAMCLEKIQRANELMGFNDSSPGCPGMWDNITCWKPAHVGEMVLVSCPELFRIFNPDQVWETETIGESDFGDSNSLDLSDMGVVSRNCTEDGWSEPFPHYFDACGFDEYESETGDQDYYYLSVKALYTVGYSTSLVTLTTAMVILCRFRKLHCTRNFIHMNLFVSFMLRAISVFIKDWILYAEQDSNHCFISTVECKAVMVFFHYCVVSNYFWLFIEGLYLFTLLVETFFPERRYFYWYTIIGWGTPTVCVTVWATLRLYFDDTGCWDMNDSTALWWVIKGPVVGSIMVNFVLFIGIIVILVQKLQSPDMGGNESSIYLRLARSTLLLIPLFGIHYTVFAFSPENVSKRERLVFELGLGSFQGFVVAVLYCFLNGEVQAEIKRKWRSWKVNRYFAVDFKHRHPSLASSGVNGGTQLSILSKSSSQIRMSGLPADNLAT

[5] = target: T2, Pituitary adenylate cyclase-activating polypeptide type I receptor (Rattus norvegicus); assay: Antagonist activity at PAC1R in rat RG2 cells assessed as inhibition of Maxadilan-induced cAMP accumulation pre-incubated for 30 mins followed by agonist addition and measured after 75 mins by Eu-cAMP tracer based LANCE ultra cAMP assay; assay type: cell-based; details: filed as antagonist, time 105.0 min
[6] = Half life in Sprague-Dawley rat at 2 mg/kg,iv measured upto 6 hrs by LC-MS analysis; assay type: ADME, organism-based; details: in vivo
[7] = Cmax in Sprague-Dawley rat at 2 mg/kg,iv measured upto 6 hrs by LC-MS analysis; assay type: ADME, organism-based; parameters: time < 6 hrs, dose 2 mg/kg, route iv; details: in vivo
[8] = AUC (0-infinity) in Sprague-Dawley rat at 2 mg/kg,iv measured upto 6 hrs by LC-MS analysis; assay type: ADME, organism-based; parameters: dose 2 mg/kg, time < 6 hrs, route iv; details: in vivo
[9] = Clearance in Sprague-Dawley rat at 2 mg/kg,iv measured upto 6 hrs by LC-MS analysis; assay type: ADME, organism-based; details: in vivo
[10] = Volume of distribution at steady state in Sprague-Dawley rat at 2 mg/kg,iv measured upto 6 hrs by LC-MS analysis; assay type: ADME, organism-based; details: in vivo, read-out: Vdss
[11] = Half life in Sprague-Dawley rat at 10 mg/kg,sc measured upto 6 hrs by LC-MS analysis; assay type: ADME, organism-based; details: in vivo
[12] = Cmax in Sprague-Dawley rat at 10 mg/kg,sc measured upto 6 hrs by LC-MS analysis; assay type: ADME, organism-based; parameters: dose 10 mg/kg, time < 6 hrs, route sc; details: in vivo
[13] = AUC (0-infinity) in Sprague-Dawley rat at 10 mg/kg,sc measured upto 6 hrs by LC-MS analysis; assay type: ADME, organism-based; parameters: dose 10 mg/kg, time < 6 hrs, route sc; details: in vivo
[14] = Tmax in Sprague-Dawley rat at 10 mg/kg,sc measured upto 6 hrs by LC-MS analysis; assay type: ADME, organism-based; details: in vivo
[15] = Bioavailability in Sprague-Dawley rat at 10 mg/kg,sc measured upto 6 hrs by LC-MS analysis; assay type: ADME, organism-based; details: in vivo
[16] = target: T3, Vasoactive intestinal polypeptide receptor 1 (Homo sapiens, UniProt P32241); assay: Antagonist activity at VPAC1 in human SH-SY5Y cells assessed as inhibition of PACAP38-induced cAMP accumulation pre-incubated for 30 mins followed by agonist addition and measured after 75 mins by Eu-cAMP tracer based LANCE ultra cAMP assay; assay type: functional, cell-based
T3 sequence (P32241 whole entry): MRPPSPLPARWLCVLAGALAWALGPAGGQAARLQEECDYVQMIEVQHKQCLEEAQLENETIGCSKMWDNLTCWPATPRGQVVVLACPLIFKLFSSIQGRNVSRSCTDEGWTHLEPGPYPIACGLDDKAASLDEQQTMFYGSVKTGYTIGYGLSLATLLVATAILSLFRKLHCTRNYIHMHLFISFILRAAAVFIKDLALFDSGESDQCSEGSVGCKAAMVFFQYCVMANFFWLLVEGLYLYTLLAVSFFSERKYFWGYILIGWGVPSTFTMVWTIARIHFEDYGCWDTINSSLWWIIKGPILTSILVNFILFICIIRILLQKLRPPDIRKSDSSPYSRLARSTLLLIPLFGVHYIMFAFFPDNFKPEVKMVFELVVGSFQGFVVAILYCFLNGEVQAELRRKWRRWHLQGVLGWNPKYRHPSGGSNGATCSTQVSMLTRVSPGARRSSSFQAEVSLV

[17] = target: T4, Vasoactive intestinal polypeptide receptor 2 (Homo sapiens, UniProt P41587); assay: Antagonist activity at VPAC2 in human SH-SY5Y cells assessed as inhibition of PACAP38-induced cAMP accumulation pre-incubated for 30 mins followed by agonist addition and measured after 75 mins by Eu-cAMP tracer based LANCE ultra cAMP assay; assay type: functional, cell-based
T4 sequence (P41587 whole entry): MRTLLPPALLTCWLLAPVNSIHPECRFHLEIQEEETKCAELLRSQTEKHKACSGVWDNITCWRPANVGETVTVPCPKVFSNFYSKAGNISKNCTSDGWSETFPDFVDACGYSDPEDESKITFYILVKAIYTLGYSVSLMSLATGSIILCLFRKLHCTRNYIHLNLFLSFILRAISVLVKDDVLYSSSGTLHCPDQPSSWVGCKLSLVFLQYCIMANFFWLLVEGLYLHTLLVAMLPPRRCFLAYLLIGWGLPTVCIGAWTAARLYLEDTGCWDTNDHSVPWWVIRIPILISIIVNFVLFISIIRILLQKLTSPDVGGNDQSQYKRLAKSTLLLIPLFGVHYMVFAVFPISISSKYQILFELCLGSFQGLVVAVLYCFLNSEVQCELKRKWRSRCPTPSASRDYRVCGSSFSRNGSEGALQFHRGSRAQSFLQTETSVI

[18] = target: T1, Pituitary adenylate cyclase-activating polypeptide type I receptor; assay: Agonist activity at PAC1R in human SH-SY5Y cells assessed as cAMP accumulation incubated for 60 mins by Eu-cAMP tracer based LANCE ultra cAMP assay; assay type: cell-based
Target sequence in this assay (P41586 whole entry): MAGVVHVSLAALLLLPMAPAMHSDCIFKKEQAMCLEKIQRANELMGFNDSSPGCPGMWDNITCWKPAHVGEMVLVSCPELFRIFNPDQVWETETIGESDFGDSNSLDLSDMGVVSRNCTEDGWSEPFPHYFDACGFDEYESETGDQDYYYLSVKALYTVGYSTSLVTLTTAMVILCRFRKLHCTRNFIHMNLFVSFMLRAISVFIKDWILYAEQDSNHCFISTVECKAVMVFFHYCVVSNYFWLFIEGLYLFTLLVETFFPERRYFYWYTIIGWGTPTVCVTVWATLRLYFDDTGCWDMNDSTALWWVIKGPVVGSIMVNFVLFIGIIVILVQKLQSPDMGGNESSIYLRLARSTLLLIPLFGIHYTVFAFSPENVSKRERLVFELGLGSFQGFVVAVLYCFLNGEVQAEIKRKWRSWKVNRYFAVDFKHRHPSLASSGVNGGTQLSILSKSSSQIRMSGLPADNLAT

[19] = target: T3, Vasoactive intestinal polypeptide receptor 1; assay: Agonist activity at VPAC1 in human SH-SY5Y cells assessed as cAMP accumulation incubated for 60 mins by Eu-cAMP tracer based LANCE ultra cAMP assay; assay type: functional, cell-based
[20] = target: T4, Vasoactive intestinal polypeptide receptor 2; assay: Agonist activity at VPAC2 in human SH-SY5Y cells assessed as cAMP accumulation incubated for 60 mins by Eu-cAMP tracer based LANCE ultra cAMP assay; assay type: functional, cell-based

CC[C@H](C)[C@H](NC(=O)[C@H](C)NC(=O)[C@H](CCCCN)NC(=O)[C@H](CCCNC(=N)N)NC(=O)[C@H](Cc1ccccc1)NC(=O)[C@H](CCC(N)=O)NC(=O)[C@@H]1CSSC[C@H](N)CC(=O)N[C@@H](CC(=O)O)C(=O)N[C@@H](C)C(=O)N[C@@H]([C@@H](C)O)C(=O)N1)C(=O)N[C@@H](CC(=O)O)C(=O)N[C@@H](CC(=O)O)C(=O)N[C@H]1CSSC[C@@H](C(=O)N[C@@H](CCSC)C(=O)N[C@@H](CCCCN)C(=O)N[C@@H](CCC(N)=O)C(=O)N[C@@H](CCCCN)C(=O)N[C@@H](CCCCN)C(=O)N[C@@H](CCCCN)C(=O)N[C@@H](CCC(=O)O)C(=O)N[C@@H](Cc2c[nH]c3ccccc23)C(=O)N[C@@H](CCCCN)C(=O)N[C@@H](C)C(=O)NCC(N)=O)NC(=O)[C@H](C)NC(=O)[C@H](CCCCN)NC(=O)[C@H](Cc2ccccc2)NC(=O)[C@H](C(C)C)NC(=O)[C@H](CO)NC(=O)[C@H](CO)NC(=O)[C@H](Cc2cnc[nH]2)NC(=O)[C@H](Cc2ccc(O)cc2)NC(=O)[C@H](C)NC(=O)[C@H](CCC(N)=O)NC(=O)[C@H](CCCNC(=N)N)NC(=O)[C@H](C)NC1=O (HELM PEPTIDE1{[N[C@@H](CS[*:3])CC(=O)[*:2]].D.A.T.C.Q.F.R.K.A.I.D.D.C.A.R.Q.A.Y.H.S.S.V.F.K.A.C.M.K.Q.K.K.K.E.W.K.A.G.[am]}$PEPTIDE1,PEPTIDE1,1:R3-5:R3|PEPTIDE1,PEPTIDE1,14:R3-27:R3$$$V2.0)
Activity [1]: 110%
IC90 ([2]; filed as antagonist, time 105.0 min): 0.42 nM
IC90 [3]: 0.17 nM
IC90 [4]: 0.12 nM
IC90 [5]: 0.14 nM
half-life [6]: 58.1 min
Cmax [7]: 4170 nM
AUC(0-inf) [8]: 1.16 µM·h
clearance [9]: 6.55 mL/min/kg
Vd [10]: 0.217 L/kg
half-life [11]: 41.3 min
Cmax [12]: 1110 nM
AUC(0-inf) [13]: 1.65 µM·h
Tmax [14]: 15 min
bioavailability [15]: 28%

CSCC[C@H](NC(=O)[C@H](CCC(N)=O)NC(=O)[C@H](CCCCN)NC(=O)[C@H](CCCNC(=N)N)NC(=O)[C@H](Cc1ccc(O)cc1)NC(=O)[C@H](CCCNC(=N)N)NC(=O)[C@H](CO)NC(=O)[C@H](Cc1ccc(O)cc1)NC(=O)[C@H](CO)NC(=O)[C@H](CC(=O)O)NC(=O)[C@@H](NC(=O)[C@@H](N)Cc1ccccc1)[C@@H](C)O)C(=O)N[C@@H](C)C(=O)N[C@H](C(=O)N[C@@H](CCCCN)C(=O)N[C@@H](CCCCN)C(=O)N[C@@H](Cc1ccc(O)cc1)C(=O)N[C@@H](CC(C)C)C(=O)N[C@@H](C)C(=O)N[C@@H](C)C(=O)N[C@H](C(=O)N[C@@H](CC(C)C)C(=O)NCC(=O)N[C@@H](CCCCN)C(=O)N[C@@H](CCCNC(=N)N)C(=O)N[C@@H](Cc1ccc(O)cc1)C(=O)N[C@@H](CCCCN)C(=O)N[C@@H](CCC(N)=O)C(=O)N[C@@H](CCCNC(=N)N)C(=O)N[C@H](C(=O)N[C@@H](CCCCN)C(=O)N[C@@H](CC(N)=O)C(=O)N[C@@H](CCCCN)C(N)=O)C(C)C)C(C)C)C(C)C
IC50 [2]: 3.5 nM
IC50 [16]: 118 nM
IC50 [17]: 4.5 nM

CC[C@H](C)[C@H](NC(=O)CNC(=O)[C@H](CC(=O)O)NC(=O)[C@H](CO)NC(=O)[C@@H](N)Cc1cnc[nH]1)C(=O)N[C@@H](Cc1ccccc1)C(=O)N[C@H](C(=O)N[C@@H](CC(=O)O)C(=O)N[C@@H](CO)C(=O)N[C@@H](Cc1ccc(O)cc1)C(=O)N[C@@H](CO)C(=O)N[C@@H](CCCNC(=N)N)C(=O)N[C@@H](Cc1ccc(O)cc1)C(=O)N[C@@H](CCCNC(=N)N)C(=O)N[C@@H](CCCCN)C(=O)N[C@@H](CCC(N)=O)C(=O)N[C@@H](CCSC)C(=O)N[C@@H](C)C(=O)N[C@H](C(=O)N[C@@H](CCCCN)C(=O)N[C@@H](CCCCN)C(=O)N[C@@H](Cc1ccc(O)cc1)C(=O)N[C@@H](CC(C)C)C(=O)N[C@@H](C)C(=O)N[C@@H](C)C(=O)N[C@H](C(=O)N[C@@H](CC(C)C)C(=O)NCC(=O)N[C@@H](CCCCN)C(=O)N[C@@H](CCCNC(=N)N)C(=O)N[C@@H](CCCCN)C(=O)N[C@@H](Cc1ccc(O)cc1)C(=O)N[C@@H](CCCCN)C(=O)N[C@@H](CCC(N)=O)C(=O)N[C@@H](CCCNC(=N)N)C(=O)N[C@H](C(=O)N[C@@H](CCCCN)C(=O)N[C@@H](CC(N)=O)C(=O)N[C@@H](CCCCN)C(N)=O)C(C)C)C(C)C)C(C)C)[C@@H](C)O
EC50 [18]: 0.03 nM
EC50 [19]: 0.03 nM
EC50 [20]: 0.06 nM

Reference: ChEMBL document CHEMBL5214896, “Discovery of Selective Pituitary Adenylate Cyclase 1 Receptor (PAC1R) Antagonist Peptides Potent in a Maxadilan/PACAP38-Induced Increase in Blood Flow Pharmacodynamic Model” (J Med Chem, 2021)
